# Measured values as given in patent US12083141B2, “Treatment of hyperglycemia with solute carrier family 39 member 5 (SLC39A5) inhibitors” (Regeneron Pharmaceuticals, Inc., priority 2019, dated 2024).
# Assays:
# mice fed high fat diet = experiment: Zinc supplementation of high fat diet in mice (DIO); type: in vivo; details: for hepatic zinc levels: zinc-supplemented diet
# Procedure: Four groups of 6-week old male mice (16 per group) were fed either normal chow or high fat diets supplemented with different zinc concentrations for either 4 or 6 weeks (FIG. 2A). The levels of zinc were analyzed after 4 weeks (FIGS. 2B and 2C) and after 6 weeks (FIGS. 2D and 2E).
# [1] = system: human hepatoma HepG2 cells; experiment: Zinc activation of LKB1/AMPK and AKT signaling in HepG2 cells; type: cell-based; details: acute, dose dependent
# [2] = system: human primary hepatocytes; experiment: Zinc activation of LKB1/AMPK and AKT signaling in primary hepatocytes; type: cell-based; details: acute, dose dependent
# Procedure: Liver protein was extracted using RIPA buffer (Cell signaling technology, Cat #9806) with Halt Protease & Phosphatase Inhibitor Cocktail (ThermoFisher Scientific, Cat #78440). Five microgram protein of each sample were separated in NuPAGE 4-12% Bis-Tris protein gel (Invitrogen, Cat #WG1403BOX), and transferred to nitrocellulose membrane using Trans-Blot® Turbo™ Transfer System (BioRad). Blotting was performed using the following Cell Signaling Technology antibodies: Phospho-AMPKα (Thr172) (Cell signaling technology, Cat #2535), AMPKα (Cell signaling technology, Cat #5831), β-Actin (Sigma, Cat #5441), Phospho-AKT (Ser473) (Cell signaling technology, Cat #4060), AKT (Cell signaling technology, Cat #9272), Phospho-LKB1 (Ser428) (Cell signaling technology, Cat #3482), LKB1 (Cell signaling technology, Cat #3050), rabbit IgG conjugated to horseradish peroxidase (HRP) (Cell signaling technology, Cat #7074) and mouse IgG conjugated to HRP (Cell signaling technology, Cat #7076). Blots were developed using SuperSignal West Femto Substrate (ThermoFisher Scientific, Cat #34095). Signals were captured using ImageQuant LAS4000 (GE Healthcare).
# tyrosine phosphatase [3] = experiment: Dependence of tyrosine phosphatase activity on zinc concentration; type: biochemical; details: increased concentrations of zinc
# [4] = system: serine/threonine phosphatase; experiment: Dependence of serine/threonine phosphatase activity on zinc concentration; type: biochemical; details: increased concentrations of zinc
# tyrosine phosphatase [5] = experiment: Ex vivo tyrosine phosphatase activity in SLC39A5 loss-of-function mice, diet zinc supplementation; details: high fat diets supplemented with different zinc concentrations, ex vivo assay
# [6] = system: serine/threonine phosphatase; experiment: Ex vivo serine/threonine phosphatase activity in SLC39A5 loss-of-function mice, diet zinc supplementation; details: high fat diets supplemented with different zinc concentrations, ex vivo assay
compound,measurement,setting,value
[Zn] [zinc],fat accumulation in liver (microscopic analysis),mice fed high fat diet; high fat diet supplemented with zinc,reverses fat accumulation in liver
same,"intravenous glucose tolerance test, blood glucose","mice fed high fat diet; high fat diet with increasing diet zinc concentration, 4 or 6 weeks",mitigated blood glucose increase mediated by high fat diet
same,"intravenous glucose tolerance test, area under the curve","mice fed high fat diet; high fat diet with increasing diet zinc concentration, effect not statistically significant",reduced area under the curve
same,serum zinc levels,"mice fed high fat diet; male mice, diets supplemented with different zinc concentrations, 4 and 6 weeks",no significant change
same,hepatic zinc levels,"mice fed high fat diet; male mice, after 4 weeks",no significant change
same,hepatic zinc levels,"mice fed high fat diet; male mice, after 6 weeks, correlated with level of zinc in diet",statistically significant increase
same,LKB1/AMPK and AKT signaling pathways,[1],acutely activates LKB1/AMPK and AKT signaling pathways in dose dependent manner
same,LKB1/AMPK and AKT signaling pathways,[2],acutely activates LKB1/AMPK and AKT signaling pathways in dose dependent manner
same,tyrosine phosphatase activity,tyrosine phosphatase [3],suppressed the activity
same,serine/threonine phosphatase activity,[4],suppressed the activity
same,rescue of tyrosine phosphatase inhibition caused by loss of SLC39A5,tyrosine phosphatase [5],did not rescue the inhibition
same,rescue of serine/threonine phosphatase inhibition caused by loss of SLC39A5,[6],did not rescue the inhibition
